# Source: patent US8889696B2, “Substituted pyrido[2,3-d]pyrimidin-7(8H)-ones and therapeutic uses thereof” (Temple University—Of The Commonwealth System Of Higher …, priority 2009, dated 2014)
# Columns and labels:
# SK-MEL-28 = assay: Viable cell count GI50 (Table 4); assay type: cell-based; details: SK-MEL-28, Melanoma; 96 h continuous treatment, trypan blue
# Procedure: (§1) Cells (1×10^5) were plated into 6-well dishes and 24 h later test compound was added at five different concentrations over a 2 log dilution (1-100 μM). The total number of viable cells was determined after 96 h of continuous treatment by staining with trypan blue and counting the number of non-staining cells (viable) remaining in each well using a hemacytometer. The percentage of viable cells remaining was calculated as follows: # viable cells (compound treated)/# viable cells (DMSO treated)*100.
# GRANTA-519 = assay: Viable cell count GI50 (Table 4); assay type: cell-based; details: GRANTA-519, Mantle Cell Lymphoma; 96 h continuous treatment, trypan blue
# Procedure: as §1
# U2OS = assay: Viable cell count GI50 (Table 4); assay type: cell-based; details: Osteosarcoma, 96 h continuous treatment, trypan blue
# Procedure: as §1
# RAJI = assay: Viable cell count GI50 (Table 4); assay type: cell-based; details: B-Cell, 96 h continuous treatment, trypan blue
# Procedure: as §1
# HELA = assay: Viable cell count GI50 (Table 4); assay type: cell-based; details: Cervical, 96 h continuous treatment, trypan blue
# Procedure: as §1
# BT474 = assay: Viable cell count GI50 (Table 4); assay type: cell-based; details: BT474, Breast (Erbb2+); 96 h continuous treatment, trypan blue
# Procedure: as §1
# U87 = assay: Viable cell count GI50 (Table 4); assay type: cell-based; details: U87, Glioblastoma; 96 h continuous treatment, trypan blue
# Procedure: as §1
# CD-1 female mice = assay: Toxicity study in mice; assay type: in vivo
# Procedure: . DMSO was used as a placebo. Three CD-1 female mice were used per group. Drugs were administered intraperitoneally at 100 mg/kg. Viability, signs of toxicity and body weight were monitored over the next 7 days. […]. […] Comparative body weight studies could not be carried out for this compound due to the early death of animals. These observations agree with the known toxicity of BI-2536. […]. Following this treatment, 100% survival for >10 days after injection was observed. […]
# FGFR3 = FGFR3 (Homo sapiens (Human), UniProt P22607); assay: Kinase profiling; assay type: biochemical; details: 10 μM ATP
# U2OS osteosarcoma cells [1] = assay: Spindle staining of U2OS cells (anti-alpha tubulin, fluorescent microscopy); assay type: cell-based; details: 1 uM, 24 hrs
# Procedure: The cells were fixed in 4% paraformaldehyde and stained with anti-alpha tubulin antibodies conjugated with FITC followed by 5 μg/ml […] staining. The coverslips were visualized by fluorescent microscopy using an Olympus microscope at 100× magnification equipped with the Insight digital camera system.
# recombinant Plk4 = recombinant Plk4 (Homo sapiens (Human), UniProt O00444); assay: Plk kinase inhibition assay (32P-ATP, casein); assay type: biochemical
# Procedure: (§2) Ten ng of recombinant Plk1, Plk2, Plk3 or Plk4 kinase were incubated with the indicated concentrations of compound for 30 minutes at room temperature. Kinase reactions were started by the addition of substrate mix (5 μM ATP, 10 μCi γ^32P-ATP, 1 μg α-casein, 10 mM MgCl2) for 15 minutes at 30° C. Reactions were stopped by 3% phosphoric acid, spotted on PE30 filtermat, washed, dried and subjected to scintillation counting. Data is plotted (after background subtraction) using GraphPad Prism4 software as a non-linear regression plot with variable slope to obtain IC50 values.
# (§3) Kinase reactions were started by the addition of substrate mix (5 μM ATP, 10 μCi γ^32P-ATP, 1 μg α-casein, 10 mM MgCl2) for 15 minutes at 30° C. Reactions were stopped by 3% phosphoric acid, spotted on PE30 filtermat, washed, dried and subjected to scintillation counting. Data is plotted (after background subtraction) using GraphPad Prism4 software as a non-linear regression plot with variable slope to obtain IC50 values.
# recombinant Plk3 = recombinant Plk3 (Homo sapiens (Human), UniProt Q9H4B4); assay: Plk kinase inhibition assay (32P-ATP, casein); assay type: biochemical; details: 5 μM ATP, FIG. 1
# Procedure: as §2, §3
# PLK2 [2] = biological target: T1, PLK2 (Homo sapiens (Human), UniProt Q9NYY3); assay: Plk kinase inhibition assay (32P-ATP, casein); assay type: biochemical; details: 5 μM ATP, FIG. 1
# Procedure: as §2, §3
# PLK2 [3] = biological target: T1, PLK2; assay: Affinity analysis with biotinylated compound, streptavidin pull-down from U2OS lysates, anti-Plk2 Western blot; assay type: binding; details: FIG. 2
# Procedure: Increasing concentrations of a biotinylated form of the compound were incubated with U2OS lysates. Streptavidin-conjugated agarose beads were utilized to pull down the biotinylated compound in complex with its interacting proteins.
# Increasing concentrations of a biotinylated form of the compound were incubated for two hours with U2OS lysates (0.6 mg/ml) derived from the U2OS cell line. Streptavidin-conjugated agarose beads were utilized to pull down the biotinylated compound in complex with its interacting proteins. Pre-cleared streptavidin beads were added to each reaction mixture and incubated overnight at 4° C. The beads were washed and blotted with SDS-PAGE loading buffer and run on a 10% acrylamide denaturing gel. […] Western blotting was performed using an anti-Plk2 antibody.
# HFL = assay: Viable cell count GI50 (Table 4); assay type: cell-based, human; details: Normal, 96 h continuous treatment, trypan blue
# Procedure: as §1
# tumor cells = assay: Apoptosis induction in tumor cells; assay type: cell-based
# recombinant Plk1 = recombinant Plk1 (Homo sapiens (Human), UniProt P53350)
# FLT3 (D835Y) = FLT3 (D835Y) (Homo sapiens (Human), UniProt P36888, D835Y); assay: Kinase profiling; assay type: biochemical; details: 10 μM ATP
# PLK2 [4] = biological target: T1, PLK2; assay: Kinase profiling; assay type: biochemical; details: 10 μM ATP
# U2OS osteosarcoma cells [5] = assay: Induction of apoptosis in U2OS cells (Caspase Glo, Cell Titer Blue); assay type: cell-based; details: 24 hours, FIG. 3
# Procedure: U2OS cells were treated with increasing concentrations of the compound for 24 hours. Cell viability was measured by incubating cells with Cell Titer Blue reagent at 37° C. for 3 hours under 5% CO2. Thereafter the cells were incubated with Caspase Glo reagent for 1 hour at room temperature to assay induction of Caspase 3/7 activity.
# Cell viability was measured by incubating cells with Cell Titer Blue reagent (Promega) at 37° C. for 3 hours under 5% CO2. Thereafter the cells were incubated with Caspase Glo reagent (Promega) for 1 hour at room temperature to assay induction of Caspase 3/7 activity.
# RSK1 = RSK1 (Homo sapiens (Human), UniProt Q15418); assay: biochemical
# [6] = 100 mg/kg intraperitoneally, monitored over 7 days
# T1 sequence (Q9NYY3 whole entry): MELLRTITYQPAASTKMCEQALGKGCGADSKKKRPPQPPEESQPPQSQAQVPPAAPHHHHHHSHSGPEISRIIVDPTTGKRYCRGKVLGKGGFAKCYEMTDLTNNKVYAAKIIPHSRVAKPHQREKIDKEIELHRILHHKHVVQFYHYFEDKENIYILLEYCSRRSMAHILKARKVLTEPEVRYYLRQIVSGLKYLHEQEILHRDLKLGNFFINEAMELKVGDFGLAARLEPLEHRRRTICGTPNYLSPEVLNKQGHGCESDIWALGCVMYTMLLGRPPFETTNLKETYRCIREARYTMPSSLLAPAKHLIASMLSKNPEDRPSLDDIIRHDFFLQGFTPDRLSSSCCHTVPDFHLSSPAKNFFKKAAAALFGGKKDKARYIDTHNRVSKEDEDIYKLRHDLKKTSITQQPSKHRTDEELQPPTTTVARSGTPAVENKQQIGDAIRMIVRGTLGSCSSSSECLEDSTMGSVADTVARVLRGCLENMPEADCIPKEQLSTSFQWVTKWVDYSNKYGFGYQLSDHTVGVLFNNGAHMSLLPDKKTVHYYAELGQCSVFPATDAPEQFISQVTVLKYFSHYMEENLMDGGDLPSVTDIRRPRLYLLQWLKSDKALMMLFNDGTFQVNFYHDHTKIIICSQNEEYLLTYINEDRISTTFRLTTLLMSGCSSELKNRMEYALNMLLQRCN
# recombinant Plk1, sequence (P53350 whole entry): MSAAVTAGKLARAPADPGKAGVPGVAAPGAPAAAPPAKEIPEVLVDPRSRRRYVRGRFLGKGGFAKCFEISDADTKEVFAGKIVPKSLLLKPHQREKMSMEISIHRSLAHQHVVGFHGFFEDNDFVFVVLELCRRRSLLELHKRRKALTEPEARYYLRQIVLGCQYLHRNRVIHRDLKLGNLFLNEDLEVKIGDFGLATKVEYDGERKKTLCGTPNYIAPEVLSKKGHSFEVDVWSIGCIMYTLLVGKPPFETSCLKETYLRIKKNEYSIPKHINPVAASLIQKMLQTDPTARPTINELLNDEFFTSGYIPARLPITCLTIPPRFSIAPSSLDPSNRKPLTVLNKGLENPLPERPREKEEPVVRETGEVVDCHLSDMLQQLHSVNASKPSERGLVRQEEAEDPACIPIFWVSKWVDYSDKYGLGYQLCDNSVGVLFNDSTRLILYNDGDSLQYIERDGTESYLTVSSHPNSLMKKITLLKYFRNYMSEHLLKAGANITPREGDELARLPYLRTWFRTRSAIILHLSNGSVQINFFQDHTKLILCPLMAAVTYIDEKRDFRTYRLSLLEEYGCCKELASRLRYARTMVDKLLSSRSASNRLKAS
# recombinant Plk4, sequence (O00444 whole entry): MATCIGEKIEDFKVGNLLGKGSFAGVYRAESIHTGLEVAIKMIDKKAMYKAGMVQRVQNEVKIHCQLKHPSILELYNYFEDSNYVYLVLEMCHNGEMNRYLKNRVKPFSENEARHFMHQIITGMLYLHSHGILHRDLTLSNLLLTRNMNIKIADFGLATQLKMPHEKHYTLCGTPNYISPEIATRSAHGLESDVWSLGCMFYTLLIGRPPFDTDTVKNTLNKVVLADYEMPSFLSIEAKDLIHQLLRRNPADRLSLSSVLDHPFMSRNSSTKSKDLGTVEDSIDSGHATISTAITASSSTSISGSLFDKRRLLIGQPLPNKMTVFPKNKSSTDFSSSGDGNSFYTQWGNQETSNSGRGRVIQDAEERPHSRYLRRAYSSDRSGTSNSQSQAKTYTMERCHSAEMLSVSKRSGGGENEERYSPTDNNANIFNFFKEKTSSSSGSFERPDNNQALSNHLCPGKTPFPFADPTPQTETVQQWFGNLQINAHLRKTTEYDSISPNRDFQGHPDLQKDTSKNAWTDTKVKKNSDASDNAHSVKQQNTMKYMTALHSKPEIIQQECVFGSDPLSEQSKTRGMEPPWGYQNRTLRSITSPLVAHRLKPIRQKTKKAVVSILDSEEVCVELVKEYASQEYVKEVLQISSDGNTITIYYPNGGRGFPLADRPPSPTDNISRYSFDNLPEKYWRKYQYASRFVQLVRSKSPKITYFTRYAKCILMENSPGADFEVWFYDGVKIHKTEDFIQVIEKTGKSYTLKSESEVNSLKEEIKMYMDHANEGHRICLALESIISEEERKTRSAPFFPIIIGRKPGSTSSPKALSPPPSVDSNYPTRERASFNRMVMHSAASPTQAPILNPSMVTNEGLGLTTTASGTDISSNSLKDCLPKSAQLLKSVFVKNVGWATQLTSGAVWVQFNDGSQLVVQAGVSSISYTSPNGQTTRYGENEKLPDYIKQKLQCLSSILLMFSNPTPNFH
# recombinant Plk3, sequence (Q9H4B4 whole entry): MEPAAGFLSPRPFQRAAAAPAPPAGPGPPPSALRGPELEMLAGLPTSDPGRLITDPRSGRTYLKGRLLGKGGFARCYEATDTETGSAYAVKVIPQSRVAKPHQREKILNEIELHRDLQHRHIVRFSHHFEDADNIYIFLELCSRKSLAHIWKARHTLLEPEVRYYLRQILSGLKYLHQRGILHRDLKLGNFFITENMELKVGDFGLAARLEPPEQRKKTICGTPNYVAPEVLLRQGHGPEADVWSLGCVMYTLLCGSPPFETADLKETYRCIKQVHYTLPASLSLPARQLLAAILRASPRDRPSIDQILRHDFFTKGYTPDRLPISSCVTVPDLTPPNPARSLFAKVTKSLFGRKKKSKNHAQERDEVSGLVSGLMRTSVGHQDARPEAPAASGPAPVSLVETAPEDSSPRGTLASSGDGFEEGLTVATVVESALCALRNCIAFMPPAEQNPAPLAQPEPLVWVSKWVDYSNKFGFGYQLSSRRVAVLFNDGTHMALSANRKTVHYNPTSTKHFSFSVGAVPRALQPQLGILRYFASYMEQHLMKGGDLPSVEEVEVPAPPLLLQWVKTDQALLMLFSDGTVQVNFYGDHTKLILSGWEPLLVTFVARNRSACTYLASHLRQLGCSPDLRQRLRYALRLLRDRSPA
# RSK1, sequence (Q15418 whole entry): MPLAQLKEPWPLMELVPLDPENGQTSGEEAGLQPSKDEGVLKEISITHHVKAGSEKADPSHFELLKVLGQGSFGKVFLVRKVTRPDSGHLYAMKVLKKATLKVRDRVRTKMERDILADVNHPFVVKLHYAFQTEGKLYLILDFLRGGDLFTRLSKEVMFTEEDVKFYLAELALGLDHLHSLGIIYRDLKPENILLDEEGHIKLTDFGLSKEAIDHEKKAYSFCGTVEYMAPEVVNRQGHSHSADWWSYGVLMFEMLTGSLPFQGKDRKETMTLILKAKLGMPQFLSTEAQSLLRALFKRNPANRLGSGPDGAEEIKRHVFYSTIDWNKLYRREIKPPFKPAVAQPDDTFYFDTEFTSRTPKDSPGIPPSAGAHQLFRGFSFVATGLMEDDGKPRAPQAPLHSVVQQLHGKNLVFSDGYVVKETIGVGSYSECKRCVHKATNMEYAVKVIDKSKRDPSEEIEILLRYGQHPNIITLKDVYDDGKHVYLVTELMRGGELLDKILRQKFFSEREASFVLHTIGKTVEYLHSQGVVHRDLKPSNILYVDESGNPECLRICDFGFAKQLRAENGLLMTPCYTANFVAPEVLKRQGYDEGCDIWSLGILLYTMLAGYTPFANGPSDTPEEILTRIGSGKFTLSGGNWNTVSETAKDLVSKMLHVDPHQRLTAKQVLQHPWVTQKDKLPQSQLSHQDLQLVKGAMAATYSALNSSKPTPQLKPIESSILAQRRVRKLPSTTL
# FGFR3, sequence (P22607 23-806): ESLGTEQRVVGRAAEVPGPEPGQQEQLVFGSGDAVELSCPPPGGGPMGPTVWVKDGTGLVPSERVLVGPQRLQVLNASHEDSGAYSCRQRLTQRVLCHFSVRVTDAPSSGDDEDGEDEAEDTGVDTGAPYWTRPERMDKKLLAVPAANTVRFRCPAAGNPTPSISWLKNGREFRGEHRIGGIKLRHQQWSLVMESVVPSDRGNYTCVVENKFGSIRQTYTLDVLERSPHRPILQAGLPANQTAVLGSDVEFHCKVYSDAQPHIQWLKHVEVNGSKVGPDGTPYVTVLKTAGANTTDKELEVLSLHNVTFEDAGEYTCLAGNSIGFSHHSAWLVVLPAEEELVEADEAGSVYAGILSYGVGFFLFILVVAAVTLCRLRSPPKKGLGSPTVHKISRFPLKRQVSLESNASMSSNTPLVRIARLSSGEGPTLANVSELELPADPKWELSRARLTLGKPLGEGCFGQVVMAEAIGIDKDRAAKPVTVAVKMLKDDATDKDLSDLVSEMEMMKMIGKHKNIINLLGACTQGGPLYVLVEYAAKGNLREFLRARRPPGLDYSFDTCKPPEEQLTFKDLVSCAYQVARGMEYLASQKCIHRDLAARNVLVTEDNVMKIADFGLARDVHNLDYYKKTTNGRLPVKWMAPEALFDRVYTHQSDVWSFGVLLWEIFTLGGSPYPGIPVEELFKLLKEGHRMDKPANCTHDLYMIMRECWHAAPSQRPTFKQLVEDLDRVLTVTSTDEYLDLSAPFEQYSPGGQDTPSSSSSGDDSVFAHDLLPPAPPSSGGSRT
compound,measurement,setting,value
"Cn1c(=O)c(S(=O)(=O)c2ccc(F)cc2F)cc2cnc(Nc3ccc4[nH]ccc4c3)nc21 [Example 39, 2-(1H-indol-5-ylamino)-6-(2,4-difluorophenylsulfonyl)-8-methylpyrido[2,3-d]pyrimidin-7(8H)-one]",GI50,SK-MEL-28,200 nM
same,GI50,GRANTA-519,40 nM
same,GI50,U2OS,50 nM
same,GI50,RAJI,50 nM
same,GI50,HELA,50 nM
same,GI50,BT474,100 nM
same,GI50,U87,200 nM
same,signs of toxicity,CD-1 female mice; [6],No signs of toxicity
same,survival of mice,CD-1 female mice; [6],100%
same,weight loss,CD-1 female mice; [6],No weight loss
same,survival of mice,"CD-1 female mice; 200 mg/kg, for >10 days after injection",100%
same,IC50,FGFR3,9000 nM
same,treated cells mitotically arrested with multipolar spindles,U2OS osteosarcoma cells [1],greater than 95%
same,inhibitory activity against PLK-4,recombinant Plk4,little or no inhibitory activity
same,inhibitory activity against PLK-3,recombinant Plk3,little or no inhibitory activity
same,inhibitory activity against PLK-2,PLK2 [2],potent inhibitor
same,competition of Plk2 / compound-biotin interaction by free compound,PLK2 [3],readily competed out
same,GI50,HFL,> 5000 nM
same,concentration inducing apoptosis in tumor cells,tumor cells,approximately 100 nM
same,inhibitory activity against PLK-1,recombinant Plk1,little or no inhibitory activity
same,IC50,FLT3 (D835Y),8850 nM
same,IC50,PLK2 [4],201 nM
same,cell viability,U2OS osteosarcoma cells [5]; Cell Titer Blue,dose-dependent decrease in cell viability
same,induction of apoptosis,U2OS osteosarcoma cells [5],induces apoptosis of U2OS osteosarcoma cells in a dose-dependent fashion
same,IC50,RSK1,4250 nM
